Source: patent EP4789666A1, “RNA M6A REGULATOR COMPOSITION, PREPARATION METHOD THEREFOR, AND USE THEREOF” (SHANGHAI MERNA THERAPEUTICS CO. LTD, priority 2023, dated 2025)
Blank lines part the entries; values can stand above or below the compound they belong to.

Legend:
[1] = test system: rat models with hand-foot skin reaction; experiment: Rat models with hand-foot skin reaction, topical ointment (incidence rate, histology, immunohistochemistry); type: in vivo, SD rats; conditions: for Incidence rate, left paw / Incidence rate, right paw: modeling drug alone by gavage once daily 30 days (sorafenib 100, erlotinib 70, afatinib 50, osimertinib 60 mg/kg), no compound in ointment; for successful modeling rates for the hand-foot skin reaction: once daily by gavage at 100, 70, 50 and 60 mg/kg (sorafenib, erlotinib, afatinib, osimertinib), SD rats
Protocol: After adaptive feeding for one week, SD rats (with a body weight of approximately 200 g) were randomly divided into groups with balanced body weight, with 12 rats in each group. Modeling drugs (including sorafenib, erlotinib, afatinib, and osimertinib) were respectively dissolved in a solution containing 5% of DMSO, 45% of PEG400, and 50% of H2O, and the modeling drugs were diluted to required concentrations and then administered once daily by gavage at doses shown in Table 3. After administration by gavage for 1 hour, 0.05 g of ointments containing different mass proportions of test compounds were evenly applied to left paws of the rats, a blank matrix ointment was applied to right paws of the rats to serve as a self-control, and no ointment was applied to the rats in a blank control group. After drug application, four limbs were continuously immobilized for 2 hours, then wiped with clean water to remove the residual drugs, removed from immobilization, and restored to free movement. The modeling drugs, the blank matrix ointment, and the ointments containing the test compounds were all administered once daily. After continuous administration for 30 days, the rats were euthanized, and paw plantar skin tissues were collected, fixed in 10% neutral formalin, […]. The ointments for the test compounds were prepared by mixing the compounds, white beeswax, white petrolatum, and light liquid paraffin in specific ratios (weight ratios of 3 ointments were respectively 1:18:58:23, 3:18:57:22, and 10:20:40:30). The blank matrix ointment was prepared by mixing white beeswax, white petrolatum, and light liquid paraffin in a specific ratio (weight ratio of 18:60:22).
Tissue staining: After dewaxing and rehydration, the paw plantar skin tissue sections of the above rats were stained in a hematoxylin solution for several minutes, cleaned, and placed in 1% acid alcohol for soaking until the sections faded to light blue-red. After cleaning with running water for 5 minutes, the sections were stained with eosin for 2-3 minutes, cleaned to remove excess dyes, dehydrated, then permeabilized by adding xylene for several minutes, and sealed and fixed with a neutral resin. The stratum corneum was observed under an optical microscope, and the thickness of the epidermal stratum corneum was measured using Dmetrix software.
Immunohistochemical staining: After dewaxing and hydration, the paw plantar skin tissue sections of the above rats were incubated with 3% H2O2 at room temperature for 30 minutes and blocked with 10% goat serum for 30 minutes after antigen retrieval. A KRT1 antibody (Abcam, ab93652) and a Loricrin antibody (Abcam, ab183646) were added dropwise, the sections were incubated overnight at 4°C, and an HRP secondary antibody (ZSGB-BIO, PV-6001) and a DAB kit (ZSG-BIO, ZLI9017) were added for color development. The sections were re-stained with hematoxylin, cleaned, and sealed and fixed with a neutral resin, and the expression amounts of KRT1 and Loricrin were observed under an optical microscope.
An incidence rate calculation method involves a proportion of animals in each group meeting the above criteria for determining successful modeling, that is, incidence rate = (number of successfully modeled rats/total number of rats in the group)*100%. […]

[2] = test system: chemotherapeutic drug-induced mouse model with hand-foot syndrome; experiment: Chemotherapeutic drug-induced mouse model with hand-foot syndrome; type: in vivo, ICR mice; conditions: for degree of swelling of the hind limb toes of the mice: continuous oral administration of modeling drug for 14 days; for epidermal layer and stratum corneum in the skin tissues of the hind limb toes: modeling drug oral for 14 days versus normal control group, pathological staining; for skin of the hind limb toes of the mice (appearance): modeling for 14 days (capecitabine 200 mg/kg, docetaxel 25 mg/kg oral), versus normal control group
Excerpt: After adaptive feeding for 7 days, SPF-grade ICR mice (male, 5-6 weeks old, with a body weight of approximately 35 g) were randomly divided into groups, including a blank control group (6 mice), a capecitabine modeling group (6 mice), a docetaxel modeling group (6 mice), a capecitabine + compound of formula (I) group (6 mice), a docetaxel + compound of formula (I) group (6 mice), a capecitabine + nicotinamide group (6 mice), and a docetaxel + nicotinamide group (6 mice). The groups were respectively administered corresponding modeling drugs by oral gavage (capecitabine at 200 mg/kg and docetaxel at 25 mg/kg) once daily; and the blank control group was administered an equivalent volume of normal saline. After administration with the chemotherapeutic drugs for 2 weeks, the ointments containing the compound of formula (I) (at a compound content of 3%) used in Example 10 were respectively applied topically in the groups, or nicotinamide was orally administered (100 mg/kg) once daily continuously for 16 days.
(§1) Measurement of the degree of swelling of toes: The degree of swelling of hind limb toes of the mice was measured using a toe swelling tester (KW-7C, Nanjing Calvin Biotechnology Co., Ltd.) before administration with the modeling drugs, after administration with the modeling drugs for 2 weeks, and before sacrifice, respectively. Before measurement, ankle joints of hind feet of the mice were marked at same positions before administration, after administration for 2 weeks, and before sacrifice. During measurement, water was properly located at the same level as the marked positions, and numerical values were recorded after becoming stable.
(§2) Pathological staining of skin tissues: Skin tissue samples were selected from hind limb toes of the mice and placed in 4% paraformaldehyde for fixation at room temperature for 4 hours. Then, the tissues were taken out and rinsed with running water for several hours. The samples were subjected to dehydration treatment with 70%, 80%, and 90% ethanol solutions, followed by treatment with a mixed solution of equal amounts of absolute alcohol and xylene for 15 minutes, and then permeabilized twice with a xylene solution for 15 minutes each time until the samples became transparent. The samples were placed in a mixture of half xylene and half paraffin for soaking for 15 minutes, and then, paraffin I and paraffin II were added for wax penetration for one hour, respectively. After embedding with paraffin, the samples were sectioned, baked, dewaxed, and hydrated. Then, the hydrated sections were placed in a hematoxylin solution (ZSGB-BIO, article No. 23041001) for staining for 3 minutes, and a differentiation solution of hydrochloric acid in ethanol was added for differentiation for 15 seconds. After rinsing with water, a Scott bluing solution (Servicebio, article No. 20230801) was added for bluing for 15 seconds. After rinsing with running water, the sections were stained with an eosin solution (Solarbio, article No. 33535) for 3 minutes, rinsed with running water, dehydrated, permeabilized, sealed, and inspected under a microscope.
(§3) Immunohistochemical staining: After baking, dewaxing, and hydration, paraffin sections of skin tissues of hind limb toes of the mice were subjected to antigen retrieval using a 0.2 M citric acid buffer solution (containing 1.534 g of citric acid, 3.1 g of sodium citrate, and 100 mL of distilled water, pH 4.7). Endogenous […] was removed using 3% hydrogen peroxide (Shandong Annjet High-Tech Disinfection Technology Co., Ltd., article No. 20290902), and the sections were incubated at room temperature for 10 minutes and then fully rinsed with a PBS buffer solution (containing 8 g of NaCl, 0.2 g of KCl, 1.44 g of Na2HPO4, and 1 M HCl, pH 7.4). The sections were permeabilized with 0.5% Triton-X-100 (AmyJet Scientific, article No. A-CSH436-100 mL), respectively permeabilized with mouse anti-IL-1β and rabbit IL-8 for 10 minutes, and not permeabilized with rabbit anti-IL-6. […]

[3] = test system: kinase inhibitor-induced mouse model with hand-foot skin reaction; experiment: Kinase inhibitor-induced mouse model with hand-foot skin reaction; type: in vivo, ICR mice; conditions: for degree of swelling of the hind limb toes of the mice: continuous oral administration of modeling drug for 14 days; for epidermal layer and stratum corneum in the skin tissues of the hind limb toes: modeling drug oral for 14 days versus normal control group, pathological staining; for skin of the hind limb toes of the mice (appearance): modeling for 14 days (sorafenib 100 mg/kg, osimertinib 10 mg/kg oral), versus normal control group; for cytokine IL-1β in the skin tissues of the hind limb toes: immunohistochemistry, p<0.05
Excerpt: After adaptive feeding for 7 days, SPF-grade ICR mice (male, 5-6 weeks old, with a body weight of approximately 35 g) were randomly divided into groups, including a blank control group (6 mice), a sorafenib modeling group (6 mice), an osimertinib modeling group (6 mice), a sorafenib + compound of formula (I) group (6 mice), an osimertinib + compound of formula (I) group (6 mice), a sorafenib + nicotinamide group (6 mice), and an osimertinib + nicotinamide group (6 mice). The groups were respectively administered corresponding modeling drugs by oral gavage (sorafenib at 100 mg/kg and osimertinib at 10 mg/kg) once daily; and the blank control group was administered an equivalent volume of normal saline. After administration with the chemotherapeutic drugs for 2 weeks, the ointments containing the compound of formula (I) (at a compound content of 3%) used in Example 10 were respectively applied topically in the groups, or nicotinamide was orally administered (100 mg/kg) once daily continuously for 16 days.
as §1, §2, §3

[4] = immunohistochemical staining, successfully modeled rats
[5] = successfully modeled rats versus normal rats, FIG. 8
[6] = capecitabine and docetaxel models, 3% ointment topical or nicotinamide 100 mg/kg oral, once daily 16 days
[7] = sorafenib and osimertinib models, 3% ointment topical or nicotinamide 100 mg/kg oral, once daily 16 days

Compound: CN(C)C/C=C/C(=O)Nc1cc2c(Nc3ccc(F)c(Cl)c3)ncnc2cc1O[C@H]1CCOC1 [Afatinib, afatinib, reference compound]
- KRT1 and Loricrin in tissues [1, 4]: significantly increased
- Incidence rate, left paw [1]: 8/12 (66.7%)
- Incidence rate, right paw [1]: 8/12 (66.7%)
- successful modeling rates for the hand-foot skin reaction [1]: 66.7%
- stratum corneum thickness of the paw plantar skin [1, 5]: significantly higher

Compound: CC(=O)O[C@@]12CO[C@@H]1C[C@H](O)[C@@]1(C)C(=O)[C@H](O)C3=C(C)[C@@H](OC(=O)[C@H](O)[C@@H](NC(=O)OC(C)(C)C)c4ccccc4)C[C@@](O)([C@@H](OC(=O)c4ccccc4)[C@H]21)C3(C)C [Docetaxel, docetaxel]
- degree of swelling of the hind limb toes of the mice [2]: swelling of the hind limb toes of the mice was caused
- cytokine IL-6 in the skin tissues of the hind limb toes ([2]; docetaxel oral for 14 days versus normal control group, immunohistochemistry, p<0.05): significantly increased
- epidermal layer and stratum corneum in the skin tissues of the hind limb toes [2]: significantly thickened
- skin of the hind limb toes of the mice (appearance) [2]: obvious erythema, rhagades, and blisters

Compound: C#Cc1cccc(Nc2ncnc3cc(OCCOC)c(OCCOC)cc23)c1 [Erlotinib, erlotinib, reference compound]
- KRT1 and Loricrin in tissues ([1]; rat, in vivo): significantly increased
- stratum corneum thickness of the paw plantar skin ([1]; rat, in vivo): significantly higher

Compound: NC(=O)c1cccnc1 [Nicotinamide, nicotinamide]
- swelling of the toes caused by the modeling drugs [2, 6]: it was not observed that oral administration of the nicotinamide at 100 mg/kg significantly alleviated the swelling
- thickening of the epidermal layer and the stratum corneum in the skin tissues [2, 6]: mildly alleviated
- expression level of cytokine IL-8 in the skin tissues of the hind limb toes ([2]; capecitabine model, 3% ointment topical or nicotinamide 100 mg/kg oral): didn't have a significant impact
- expression level of cytokine IL-6 in the skin tissues of the hind limb toes ([2]; docetaxel model, 3% ointment topical or nicotinamide 100 mg/kg oral): didn't have a significant impact
- expression level of cytokine IL-1β in the skin tissues of the hind limb toes ([3]; osimertinib model, 3% ointment topical or nicotinamide 100 mg/kg oral): didn't have a significant impact
- swelling of the toes caused by the modeling drugs [3, 7]: it was not observed that oral administration of the nicotinamide at 100 mg/kg significantly alleviated the swelling
- thickening of the epidermal layer and the stratum corneum in the skin tissues [3, 7]: didn't significantly alleviate
- expression level of cytokine IL-1β in the skin tissues of the hind limb toes ([3]; sorafenib model, 3% ointment topical or nicotinamide 100 mg/kg oral): didn't have a significant impact

The next lines start with results.

- cytokine IL-8 in the skin tissues of the hind limb toes ([2]; capecitabine oral for 14 days versus normal control group, immunohistochemistry, p<0.05): significantly increased
- epidermal layer and stratum corneum in the skin tissues of the hind limb toes [2]: significantly thickened
- skin of the hind limb toes of the mice (appearance) [2]: obvious erythema, rhagades, and blisters
Compound: CCCCCOC(=O)Nc1nc(=O)n([C@@H]2O[C@H](C)[C@@H](O)[C@H]2O)cc1F [Capecitabine, capecitabine]
- degree of swelling of the hind limb toes of the mice [2]: swelling of the hind limb toes of the mice was caused

- degree of swelling of the hind limb toes of the mice [3]: significant swelling
- epidermal layer and stratum corneum in the skin tissues of the hind limb toes [3]: significantly thickened
- skin of the hind limb toes of the mice (appearance) [3]: obvious erythema and rhagades
- cytokine IL-1β in the skin tissues of the hind limb toes ([3]; osimertinib oral for 14 days versus normal control group): significantly increased
Compound: C=CC(=O)Nc1cc(Nc2nccc(-c3cn(C)c4ccccc34)n2)c(OC)cc1N(C)CCN(C)C [Osimertinib, osimertinib]
- KRT1 and Loricrin in tissues ([1]; rat, in vivo): significantly increased
- stratum corneum thickness of the paw plantar skin ([1]; rat, in vivo): significantly higher

- degree of swelling of the hind limb toes of the mice [3]: significant swelling
- epidermal layer and stratum corneum in the skin tissues of the hind limb toes [3]: significantly thickened
- skin of the hind limb toes of the mice (appearance) [3]: obvious erythema and rhagades
- cytokine IL-1β in the skin tissues of the hind limb toes ([3]; sorafenib oral for 14 days versus normal control group): significantly increased
Compound: CNC(=O)c1cc(Oc2ccc(NC(=O)Nc3ccc(Cl)c(C(F)(F)F)c3)cc2)ccn1 [Sorafenib, sorafenib, reference compound]
- KRT1 and Loricrin in tissues [1, 4]: significantly increased
- Incidence rate, left paw [1]: 9/12 (75%)
- Incidence rate, right paw [1]: 9/12 (75%)
- successful modeling rates for the hand-foot skin reaction [1]: 75%
- stratum corneum thickness of the paw plantar skin [1, 5]: significantly higher
